Test results: patent US20230257385A1, “SALT AND SOLID FORMS OF TABERNANTHALOG” (priority 2021, published 2023)
Structures can show the parent of a compound that is named as a salt.

How the values were obtained:
Format in all cases: physicochemical
[1] = Stability of sorbate salt at 95% RH (KNO3) at 20° C. (Example 10, Experiment 10); conditions: XRPD
Procedure: The samples were maintained under equilibrium humidity of 95% RH at 20° C. and monitored at 5 day by XRPD and 10 day time points by ^1H NMR, XRPD, DSC, TGA and PLM.
Experiment 10-Sample A was open-capped, and Experiment 10-Sample B was open-capped inside double, cable-tied, electrostatic polythene bags (to mimic a typical packaging configuration) and both were placed inside the same humidity chamber at 95% RH at 20° C. The powders were finely divided and distributed evenly over the base of the vial, such that equal material coverage across the panel was observed. The samples were sub-sampled at intervals of t=0, 5 d and 10 d and analysed by XRPD, DSC, TGA and ^1H NMR, for evidence of phase change or chemical degradation

[2] = Qualitative solubility screen of Tabernanthalog sorbate salt (Example 10, Experiment 2)
Procedure: The qualitative solubility screen was carried out to determine the range of solvents incorporated into future suspension equilibration panels. Products that crystallised were centrifuged and analysed as wet pellet by XRPD, dried under reduced pressure and re-analysed by XRPD, with selected samples further analysed by TGA and ^1H NMR spectroscopy.
If insoluble at 5 vol, the solvent quantity was increased to 10 vol, 15 vol and 20 vol of the respective solvent. The suspensions that occurred upon cooling down were centrifuged and the solvent wet pellets were analysed by XRPD.
The insoluble suspensions were additionally worked up for XRPD analysis. The resultant powder patterns were subsequently cross-referenced against the input supplied material.

[3] = Stability panel of salts, open vial / double-bagged vial, t=5 d and 10 d; conditions: storage conditions not given
Text: FIG. 797 depicts the overlay of, from top to bottom, XRPD of Experiment 1-Sample A2 (Form A), Experiment 10-Sample A1 (5 days, open vial Pattern #2), Experiment 10-Sample A2 (10 days, open vial, Pattern #2), Experiment 10-Sample B1 (5 days, double-bagged vial, Form A) and Experiment 10-Sample B2 (10 days, double-bagged vial, Pattern #2).

[4] = listed as Tabernanthalog sorbate salt (Form A)
[5] = Acetone/Water (5% v/v, 0.5 aw), 5 vol

## COc1ccc2c3c([nH]c2c1)CCN(C)CC3 [tabernanthalog sorbate salt]
[1]
  form change on storage, double-bagged (closed) vial: At t=10 d, Form A converted to Pattern #2
  form change on storage, open vial: At t=5 d, Form A converted to Pattern #2
[1]; [4]
  form change on storage, double-bagged (closed) vial: after 10 days
  form change on storage, open vial: converted to Form C (Pattern #2) after 5 days
[2]; 2-Propanol, 5 vol
  Solid on cooling: ✓
  Solution at reflux: ✓
[2]; 2-Propanol, 10 vol
  Solid on cooling: ✓
  Solution at reflux: ✓
[2]; 2-Propanol, 15 vol
  Solid on cooling: ✓
  Solution at reflux: ✓
[2]; 2-Propanol, 20 vol
  Solid on cooling: ✓
  Solution at reflux: ✓
[2]; Acetone, 10 vol
  Solid on cooling: ✓
  Solution at reflux: ✓
[2]; Acetone, 15 vol
  Solid on cooling: ✓
  Solution at reflux: ✓
[2]; Acetone, 20 vol
  Solid on cooling: ✓
  Solution at reflux: ✓
[2]; [5]
  Solid on cooling: ✓
  Solution at 40° C.: ✓
[2]; Chlorobenzene, 5 vol
  Solid on cooling: ✓
  Solution at reflux: ✓
[2]; Chlorobenzene, 10 vol
  Solid on cooling: ✓
  Solution at reflux: ✓
[2]; Chlorobenzene, 15 vol
  Solid on cooling: ✓
  Solution at reflux: ✓
[2]; Chlorobenzene, 20 vol
  Solid on cooling: ✓
  Solution at 20° C.: ×
  Solution at reflux: ✓
[2]; DCM, 5 vol
  Solid on cooling: ✓
  Solution at reflux: ✓
[2]; DCM, 10 vol
  Solid on cooling: ✓
  Solution at 40° C.: ✓
[2]; DCM, 15 vol
  Solution at 40° C.: ✓
[2]; EtOAc, 5 vol
  Solid on cooling: ✓
  Solution at reflux: ✓
[2]; EtOAc, 10 vol
  Solid on cooling: ✓
  Solution at reflux: ✓
[2]; EtOAc, 15 vol
  Solid on cooling: ✓
  Solution at reflux: ✓
[2]; EtOAc, 20 vol
  Solid on cooling: ✓
  Solution at reflux: ✓
[2]; EtOH, 5 vol
  Solid on cooling: ✓
  Solution at reflux: ✓
[2]; EtOH, 10 vol
  Solid on cooling: ✓
  Solution at 40° C.: ✓
[2]; EtOH, 15 vol
  Solution at 40° C.: ✓
[2]; Ethanol/Water (15% v/v, 0.5 aw), 5 vol
  Solution at 20° C.: ✓
[2]; Ethyl formate, 5 vol
  Solid on cooling: ✓
  Solution at reflux: ✓
[2]; Ethyl formate, 10 vol
  Solid on cooling: ✓
  Solution at reflux: ✓
[2]; Ethyl formate, 15 vol
  Solid on cooling: ✓
  Solution at reflux: ✓
[2]; Ethyl formate, 20 vol
  Solid on cooling: ✓
  Solution at reflux: ✓
[2]; Heptane, 10 vol
  Solution at reflux: Oiled
[2]; Isopropanol/Water (12%, v/v, 0.5 aw), 5 vol
  Solution at 40° C.: ✓
[2]; Isopropyl acetate, 5 vol
  Solid on cooling: ✓
  Solution at reflux: ✓
[2]; Isopropyl acetate, 10 vol
  Solid on cooling: ✓
  Solution at reflux: ✓
[2]; Isopropyl acetate, 15 vol
  Solid on cooling: ✓
  Solution at reflux: ✓
[2]; Isopropyl acetate, 20 vol
  Solid on cooling: ✓
  Solution at reflux: ✓
[2]; MEK, 5 vol
  Solid on cooling: ✓
  Solution at reflux: ✓
[2]; MEK, 10 vol
  Solid on cooling: ✓
  Solution at reflux: ✓
[2]; MEK, 15 vol
  Solid on cooling: ✓
  Solution at reflux: ✓
[2]; MEK, 20 vol
  Solid on cooling: ✓
  Solution at 40° C.: ✓
[2]; MeCN, 5 vol
  Solid on cooling: ✓
  Solution at reflux: ✓
[2]; MeCN, 10 vol
  Solid on cooling: ✓
  Solution at reflux: ✓
[2]; MeCN, 15 vol
  Solid on cooling: ✓
  Solution at reflux: ✓
[2]; MeCN, 20 vol
  Solid on cooling: ✓
  Solution at reflux: ✓
[2]; MeOH, 5 vol
  Solution at 20° C.: ✓
[2]; MeTHF, 5 vol
  Solid on cooling: ✓
  Solution at reflux: ✓
[2]; MeTHF, 10 vol
  Solid on cooling: ✓
  Solution at reflux: ✓
[2]; MeTHF, 15 vol
  Solid on cooling: ✓
  Solution at reflux: ✓
[2]; MeTHF, 20 vol
  Solid on cooling: ✓
  Solution at reflux: ✓
[2]; Methyl acetate, 10 vol
  Solid on cooling: ✓
  Solution at reflux: ✓
[2]; Methyl acetate, 15 vol
  Solid on cooling: ✓
  Solution at reflux: ✓
[2]; Methyl acetate, 20 vol
  Solid on cooling: ✓
  Solution at reflux: ✓
[2]; Nitromethane, 5 vol
  Solid on cooling: ✓
  Solution at reflux: ✓
[2]; Nitromethane, 10 vol
  Solid on cooling: ✓
  Solution at reflux: ✓
[2]; Nitromethane, 15 vol
  Solid on cooling: ✓
  Solution at reflux: ✓
[2]; Nitromethane, 20 vol
  Solid on cooling: ✓
  Solution at reflux: ✓
[2]; THF, 5 vol
  Solid on cooling: ✓
  Solution at reflux: ✓
[2]; THF, 10 vol
  Solution at reflux: ✓
[2]; Toluene, 5 vol
  Solid on cooling: ✓
  Solution at reflux: ✓
[2]; Toluene, 10 vol
  Solid on cooling: ✓
  Solution at reflux: ✓
[2]; Toluene, 15 vol
  Solid on cooling: ✓
  Solution at reflux: ✓
[2]; Toluene, 20 vol
  Solid on cooling: ✓
  Solution at reflux: ✓
[2]; Water, 5 vol
  Solid on cooling: ✓
  Solution at reflux: ✓
[2]; Water, 10 vol
  Solution at reflux: ✓
[3]; end value (minimal reduction in CP)
  CP after stability storage: 99.70 % area
[3]; starting value
  CP before stability storage: 99.76 % area
